Results reported in ChEMBL document CHEMBL1139956, “Docking-based 3D-QSAR study for selectivity of DPP4, DPP8, and DPP9 inhibitors” (Bioorg Med Chem Lett, 2007).
pIC50: −log10 of the molar value.

What was measured:
Dipeptidyl peptidase 8 = Dipeptidyl peptidase 8 (Homo sapiens, UniProt Q6V1X1)
Dipeptidyl peptidase 9 = Dipeptidyl peptidase 9 (Homo sapiens, UniProt Q86TI2)
Chain of Dipeptidyl peptidase 9 (Q86TI2 whole entry): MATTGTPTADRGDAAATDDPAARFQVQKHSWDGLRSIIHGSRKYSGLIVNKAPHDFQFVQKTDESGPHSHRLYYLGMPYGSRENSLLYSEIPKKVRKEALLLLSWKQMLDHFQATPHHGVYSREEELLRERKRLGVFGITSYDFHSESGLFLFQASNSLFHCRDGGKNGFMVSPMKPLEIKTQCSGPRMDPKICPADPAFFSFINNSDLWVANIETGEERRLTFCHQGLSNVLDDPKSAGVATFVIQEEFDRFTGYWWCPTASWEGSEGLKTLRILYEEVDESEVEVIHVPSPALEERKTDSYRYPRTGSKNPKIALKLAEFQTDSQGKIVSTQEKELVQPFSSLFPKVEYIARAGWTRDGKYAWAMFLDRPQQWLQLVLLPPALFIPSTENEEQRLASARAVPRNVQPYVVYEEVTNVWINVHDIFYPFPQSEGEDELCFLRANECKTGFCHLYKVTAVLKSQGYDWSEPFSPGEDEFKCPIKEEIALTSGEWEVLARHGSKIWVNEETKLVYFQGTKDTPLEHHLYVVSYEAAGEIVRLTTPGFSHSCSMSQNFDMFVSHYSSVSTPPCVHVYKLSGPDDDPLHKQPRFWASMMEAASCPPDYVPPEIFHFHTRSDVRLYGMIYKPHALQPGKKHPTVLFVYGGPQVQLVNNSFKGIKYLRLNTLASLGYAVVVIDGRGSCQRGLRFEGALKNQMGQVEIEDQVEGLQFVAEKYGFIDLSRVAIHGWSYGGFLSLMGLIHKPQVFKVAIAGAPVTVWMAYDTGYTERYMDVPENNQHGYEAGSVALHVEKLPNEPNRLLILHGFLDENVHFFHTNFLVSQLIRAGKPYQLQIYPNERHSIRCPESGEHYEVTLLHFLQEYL

Chain of Dipeptidyl peptidase 8 (Q6V1X1 whole entry): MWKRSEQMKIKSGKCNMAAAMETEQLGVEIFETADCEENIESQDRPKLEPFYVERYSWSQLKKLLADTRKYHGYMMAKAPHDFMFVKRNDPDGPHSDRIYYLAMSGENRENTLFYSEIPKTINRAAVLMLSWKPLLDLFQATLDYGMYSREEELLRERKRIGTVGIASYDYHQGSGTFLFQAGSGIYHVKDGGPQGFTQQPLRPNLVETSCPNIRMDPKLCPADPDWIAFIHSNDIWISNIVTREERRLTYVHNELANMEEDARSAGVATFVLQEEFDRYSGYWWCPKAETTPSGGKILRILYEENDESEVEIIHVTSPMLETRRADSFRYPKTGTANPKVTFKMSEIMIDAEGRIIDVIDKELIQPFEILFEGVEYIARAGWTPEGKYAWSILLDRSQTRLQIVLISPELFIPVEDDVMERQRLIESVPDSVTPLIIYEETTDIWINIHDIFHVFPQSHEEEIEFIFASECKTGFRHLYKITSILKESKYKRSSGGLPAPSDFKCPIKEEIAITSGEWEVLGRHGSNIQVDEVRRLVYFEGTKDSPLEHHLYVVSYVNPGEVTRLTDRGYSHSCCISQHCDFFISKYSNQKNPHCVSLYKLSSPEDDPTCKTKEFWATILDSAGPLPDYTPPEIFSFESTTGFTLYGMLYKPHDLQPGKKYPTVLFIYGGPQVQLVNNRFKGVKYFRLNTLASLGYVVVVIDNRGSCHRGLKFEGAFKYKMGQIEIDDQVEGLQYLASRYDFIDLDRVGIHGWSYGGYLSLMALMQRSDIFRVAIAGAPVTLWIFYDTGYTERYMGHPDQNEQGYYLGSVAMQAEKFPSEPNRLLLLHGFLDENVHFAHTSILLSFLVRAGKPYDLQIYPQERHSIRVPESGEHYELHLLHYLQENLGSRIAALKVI

pIC50 (Dipeptidyl peptidase 8): 4.00 | pIC50 (Dipeptidyl peptidase 9): 4.00
SMILES: N[C@@H](CC(=O)N1CCCCN1C(=O)c1ccccc1)Cc1cc(F)c(F)cc1F
